Values quoted from earlier work, collected in patent publication US11124883B2, “Method for inhibiting metal corrosion using a benzimidazole-containing composition” (priority 2017, dated 2021).

Details: at 20° C., according to DrugBank

water solubility: about 20 g/L
Compound: c1ccc2[nH]cnc2c1 [unsubstituted benzimidazole, benzimidazole]
